Values of other authors as cited in patent US20080213433A1, “Fluid compositions comprising polyphenols and methods for making and packaging the same” (priority 2006, published 2008).

How the values were obtained:
[1] = target: T1, SIRT1 (Homo sapiens, UniProt Q96EB6); conditions: sirtuin enzyme; cis-isomer compared to trans-resveratrol
T1 sequence (Q96EB6 1-747): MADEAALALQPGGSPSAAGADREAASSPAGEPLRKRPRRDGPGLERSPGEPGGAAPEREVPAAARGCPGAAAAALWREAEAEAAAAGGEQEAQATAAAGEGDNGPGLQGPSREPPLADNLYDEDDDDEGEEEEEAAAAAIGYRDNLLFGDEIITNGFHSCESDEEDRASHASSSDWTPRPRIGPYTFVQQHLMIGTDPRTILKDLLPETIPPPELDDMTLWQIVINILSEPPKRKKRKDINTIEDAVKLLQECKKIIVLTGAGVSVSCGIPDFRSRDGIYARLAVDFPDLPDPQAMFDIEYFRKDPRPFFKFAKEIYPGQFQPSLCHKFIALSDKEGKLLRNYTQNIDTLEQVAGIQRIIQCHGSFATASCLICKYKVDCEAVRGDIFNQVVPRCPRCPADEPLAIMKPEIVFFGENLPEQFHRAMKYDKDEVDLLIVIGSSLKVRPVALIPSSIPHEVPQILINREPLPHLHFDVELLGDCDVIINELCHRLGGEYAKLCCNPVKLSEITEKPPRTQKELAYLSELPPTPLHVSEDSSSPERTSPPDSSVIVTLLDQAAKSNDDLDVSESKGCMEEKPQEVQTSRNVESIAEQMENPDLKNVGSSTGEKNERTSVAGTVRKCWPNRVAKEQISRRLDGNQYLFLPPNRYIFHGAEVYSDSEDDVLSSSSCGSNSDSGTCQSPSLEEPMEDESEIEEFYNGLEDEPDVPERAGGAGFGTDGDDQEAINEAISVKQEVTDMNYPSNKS

[2] = β-glucosidases in the human intestines hydrolyze piceid and release free trans-resveratrol

| Structure (SMILES) | stimulation / activation of SIRT1 [1] | bioavailability of trans-resveratrol derived from the β-glucosidic form vs the free form in solution [2] |
| --- | --- | --- |
| Oc1ccc(/C=C/c2cc(O)cc(O)c2)cc1 [Trans-resveratrol] | stimulate |  |
| OCC1OC(Oc2cc(O)cc(/C=C/c3ccc(O)cc3)c2)C(O)C(O)C1O (stereo not drawn) [piceid, 2-[3-hydroxy-5-[(E)-2-(4-hydroxyphenyl)ethenyl]phenoxy]-6-(hydroxymethyl)oxane-3,4,5-triol] |  | equivalent |
| Oc1ccc(/C=C\c2cc(O)cc(O)c2)cc1 [Cis-resveratrol] | considerably less efficacy |  |
